The subject of series [1] is cervicovaginal epithelium of female CD-1 mice. The experiment in a line: Cervicovaginal tissue inflammation after repetitive intravaginal application in mice (Example 8). The settings on record: for neutrophils in cervicovaginal squamous epithelia (immunofluorescence): 5% in cream base intravaginally; for mice with inflammatory response or disruption of the squamous epithelia: 5% in cream base intravaginally daily for 5 or 20 days, 10 mice.
Description: In particular, 30 female CD-1 mice, 6 months old were randomly divided into two groups (A and B). Each group was further divided into three subgroups of 5 mice. […] After 5 and 20 days respectively, mice were killed by cervical dislocation, and tissues from the genitourinary tract were fixed in 10% buffered formalin. To determine the degree of inflammation and membrane integrity of squamous epithelia, conventional paraffin-embedded sections (6-pm) were prepared and stained with hematoxylin and eosin and observed under 300× magnification with a Leica microscope interfaced with an image analysis system (Scion), and images were transferred to Adobe Photoshop software for printout. The four stages of the estrous cycle were determined histologically.
Following antigen retrieval by heating (93° C. for 10 min in 10 mM sodium citrate buffer, pH 6.0), sections were preincubated with 10% normal goat serum in PBS, treated with optimal dilution (5 μg/ml) of the mAb followed by FITC-conjugated goat anti-rat IgG (Pierce Chemical Co., Rockford, IL). Each incubation step lasted 60 min with 5 min PBS washes between each step. The slides were counterstained with PI (1 μg/ml), washed in deionized water, mounted in anti-fade (BioRad), and visualized by laser confocal microscopy as described above. Negative controls were carried out by replacing the primary mAb with PBS or using rat IgG2 as control mAb

Series [2] has as its system human sperm. The experiment in a line: Time course of sperm immobilizing activity by CASA (Example 2). It is filed as cell-based. The settings on record: 100 μM. Here is the method:
At timed intervals, duplicate aliquots (4-μl) were transferred to two 20 μm Microcell chambers and sperm motility was assessed by CASA.

Series [3] relates to female Swiss (CD-1) mice. Kind of series: Fertility of female mice after artificial insemination with intravaginal application (Example 7). Format: in vivo, mouse. From the text:
Because fertilization in vivo is dependent on successful sperm transport through the female genital tract, we next determined whether exposure of sperm to the WHI-07 in vivo affected the subsequent fertility outcome. Hormonally primed adult female Swiss (CD-1) mice were artificially inseminated with motile epididymal sperm via the cervix with and without prior intravaginal application of WHI-07 in a cream base. Females were examined 8 days later for the presence or absence of embryos in uteri.
More particularly, adult (5-6 months old) female CD-1 mice were superovulated by an intraperitoneal injection (i. p.) of 5 IU of pregnant mare's serum gonadotropin followed by an i.p. injection of 5 IU of human chorionic gonadotropin 46-48 hours later. Mice were randomly assigned to one of the two treatment groups (27 or 24/group); vehicle controls [cream base (Taro Pharmaceuticals, Hawthorne, N.J.) with 1% DMSO], or test group (cream base with 1% WHI-07 in 1% DMSO) and given intravaginally (50 μl) prior to artificial insemination. Caudae epididymal sperm were obtained from proven breeder adult CD-1 male (5-6 months old) [B. Hogan, R. Beddington, F. Costantini, E. Lacy, Eds., Manipulating the Mouse Embryo (Cold Spring Harbor Laboratory Press, Plainview, N.Y., 1994] and suspended in a modified Krebs Ringer-bicarbonate medium (M2; Gibco-BRL) supplemented with pyruvate, lactate, and glucose. Sperm were capacitated in M2 medium-5% BSA for 1 hour prior to use. For each experiment cauda epididymal sperm pooled from 25 male mice and adjusted to 1-2×10^6 motile sperm/50 μl were used for insemination. A 50 μl volume/mouse was ejected through a 1 ml syringe with a blunted 18 gauge needle. Preparations were analyzed for sperm concentration, motility, and sperm motion parameters by CASA using software designed for oval sperm head morphology (Hamilton Thorne). On day 8, individual females representing the control and test group were killed and their uteri were examined for the presence or absence of embryos. A total of three independent fertility experiments were performed.

Series [4] relates to human sperm binding and penetration of zona-free hamster eggs. The experiment in a line: Zona-free hamster egg penetration assay (Example 6). It is filed as cell-based. Conditions: 25 μM or 100 μM, 3 hours preincubation; P<0.001. The method, then: The heterologous zona-free hamster egg penetration assay appears to correlate with the in vivo fertilizing capacity of human sperm as well as the ability of human sperm to fertilize intact human eggs in vitro.
15, 471 (1976)]. Motile fractions of sperm (n=4) obtained by 90-45% Percoll gradient centrifugation and wash were resuspended in BWW-3.5% BSA medium (pH 7.4) and divided into aliquots of 20×10^6 sperm/ml and allowed to capacitate for 24 hours. […] After exposure to drugs, the control and WHI-treated sperm suspensions were washed in BWW-3.5% BSA medium. Sperm motility following capacitation and washing in BWW-3.5% BSA medium was assessed by CASA.
Frozen hamster eggs (Charles River Laboratories, Wilmington, Mass.) were thawed and transferred to 35 mm glass bottom microwells (Mat Tek Corporation, Ashland, Mass.) in BWW medium. To remove zona, the washed eggs were treated with 0.05% trypsin (Irvine Scientific) in BWW medium for 20 min and then transferred to BWW-3.5% BSA medium and washed three times. Fifteen to 45 zona-free eggs per test were transferred in 100 μl of BWW-3.5% BSA medium under mineral oil. […] The number of sperm bound per egg, the number of swollen sperm heads per egg, and the percentage of penetrated eggs were determined for control and test sperm. […]

Series [5] relates to binding of human sperm to human zona. The experiment in a line: Human sperm-zona binding assay (Example 5). It is filed as cell-based. Here is the method: The human sperm-zona recognition and binding assay appears to predict the in vitro and in vivo fertilization outcome. […] Due to the variable number of sperm binding to human eggs, the sperm-zona binding ratio was used to assess sperm-zona binding capacity.
Following coincubation, the number of tightly bound green (SYBR 14) and blue (SYTO 17) sperm were assessed by laser scanning confocal microscopy. Frozen human eggs (n=46) were thawed and rinsed three times in BWW-0.3% BSA, and in BWW-3.5% BSA, before addition of sperm suspension. […] The first aliquot was incubated with 2.5 μM SYBR 14 (Molecular Probes) and the second aliquot was incubated with 5 μM SYTO 17. Following 30 minutes of incubation, sperm motility was assessed by CASA. Motile sperm with intensely stained green or blue nuclei were washed twice in BWW and one million motile sperm labeled with SYBR 14 (green) and SYTO 17 (blue) were added to dish containing human zona (n=2) under mineral oil and coincubated for 4 hours. Following extensive washing of eggs to dislodge any loosely adherent sperm, the eggs were mounted on glass slides and examined under a BioRad MRC-1024 Laser Scanning Confocal Microscope as described above. Using fluorescence imaging, the fluorescence emission of SYBR-14 and SYTO-17 localized on the sperm head was simultaneously recorded using 598/40 nm, and 680 DF32 emission/filter respectively. Confocal images of Z-sections were obtained using a Nikon […] (NA 1.4) objective and Kalman collection filter. Digitized images were processed with the Adobe Photoshop software and final images were printed using a Fujix Pictography 3000 color printer. The number of tightly bound green and blue-colored sperm nuclei adherent to each human egg were counted from the Z-sections of fluorescence images of each egg on all focal planes and expressed as a binding ratio.

The subject of series [6] is human sperm in donor semen. Kind of series: Sperm immobilizing activity in diluted semen / seminal plasma (Example 3). It is filed as cell-based. Conditions: 200 μM, 3 hours, CASA. The method, then:
Following 3 hours of incubation, duplicate aliquots (4-μl) were used for CASA.

[7] abbreviates: experiment 1, 27 mice, 1% WHI-07 in cream base intravaginally, day 8.
Setting [8] is: experiment 2, 27 mice, 1% WHI-07 in cream base intravaginally, day 8.
Where [9] appears, read: experiment 3, 24 mice, 1% WHI-07 in cream base intravaginally, day 8.
[10] abbreviates: total of three experiments, 78 mice, p < 0.001 vs control.

Take `CCCCCCCCCc1ccc(OCCOCCOCCOCCOCCOCCOCCOCCOCCO)cc1` [Compound N-9, nonoxynol-9, reference compound]: in series [1], the “neutrophils in cervicovaginal squamous epithelia (immunofluorescence)” value is on record as “intense positive staining” and the “mice with inflammatory response or disruption of the squamous epithelia” value is recorded as 9 of 10.

For the compound `COC(=O)C(C)NP(=O)(OCC1OC(N2C(=O)NC(=O)C(C)(Br)C2OC)CC1N=[N+]=[N-])Oc1ccc(Br)cc1` (centres unmarked) [WHI-07, 5-Bromo-6-methoxy-5,6-dihydro-3′-azidothymidine-5′-(p-Bromophenyl Methoxyalaninyl Phosphate)], the “exposure time to complete sperm immobilization” value in series [2] was 30 min. The “time required for 50% motility loss of progressively motile sperm” value in series [2] worked out at 6 min. For the same compound, the “neutrophils in cervicovaginal squamous epithelia (immunofluorescence)” value in series [1] is on record as “absence of neutrophils”. Further, in series [1], the “mice with inflammatory response or disruption of the squamous epithelia” value was “none of the 10 mice”. Further, the “No. of WHI-07-treated mice fertile” value in series [3] (setting [7]) turned out to be 2; in series [3] (setting [8]), 1; in series [3] (setting [9]), 3; in series [3] (setting [10]), 6. The “WHI-07-treated mice fertile (%)” value in series [3] (setting [7]) is given as 7.4%; in series [3] (setting [8]), 3.7%; in series [3] (setting [9]), 12.5%; in series [3] (setting [10]) it was 7.6%. In addition, the “sperm binding to zona-free eggs” value in series [4] is given as “significant inhibition”. Also, the “mean sperm-zona binding ratio” value in series [5] (sperm pretreated with 25 μM) was found to be 0.088; in series [5] (sperm pretreated with 50 μM), 0.039; in series [5] (sperm pretreated with 100 μM) it was 0.009. Also, the “sperm motility after direct addition to semen diluted in PBS” value in series [6] is “complete loss of motility”.

As to “5-bromo-6-methoxy-5,6-dihydro-3 ′-azidothymidine-5 ′-(p-methoxyphenyl) methoxyalaninyl phosphate [WHI-05]”, the “exposure time to complete sperm immobilization” value in series [2] is 60 min. Moreover, in series [2], the “time required for 50% motility loss of progressively motile sperm” value worked out at 17 min. The “sperm binding to zona-free eggs” value in series [4] is listed as “significant inhibition”. The figures for the “mean sperm-zona binding ratio” value in series [5] (sperm pretreated with 25 μM), in series [5] (sperm pretreated with 50 μM) and in series [5] (sperm pretreated with 100 μM) were 0.18, 0.07 and 0.10, respectively. For the same compound, the “sperm motility after direct addition to semen diluted in PBS” value in series [6] was “complete loss of motility”.

(Values after US6482805B2 (Parker Hughes Institute, priority 1998, dated 2002).)
